Values quoted from earlier work as cited in paper PMC7434893 (British Journal of Cancer, 2020).

Molecular target: tankyrase 1/2
Settings: relative to E7449; cited from earlier work

O=C(c1cc(Cc2n[nH]c(=O)c3ccccc23)ccc1F)N1CCN(C(=O)C2CC2)CC1 [olaparib]
IC50 values for tankyrase inhibition, fold higher than E7449: 5–20 fold

NC(=O)c1cccc2cn(-c3ccc([C@@H]4CCCNC4)cc3)nc12 [niraparib]
IC50 values for tankyrase inhibition, fold higher than E7449: 5–20 fold

C[C@]1(c2nc3c(C(N)=O)cccc3[nH]2)CCCN1 [veliparib]
IC50 values for tankyrase inhibition, fold higher than E7449: 5–20 fold
